Test results published in patent US20030166516A1, “Methods of treating, preventing, or inhibiting inflammation with exumolide compounds” (priority 2001, published 2003).
Where a SMILES comes first, the peptide text is derived from it. [ ]: non-standard residue; d: D form. Hica(2S) = CC(C)C[C@H](O)C(=O)O; NMeL = CN[C@@H](CC(C)C)C(=O)O

What was measured:
[1] = reported on isolation, Fenical et al. (1998) Tetrahed. Letts. 39:2463-2466; cited from earlier work
cell proliferation = test: conventional [3H]-thymidine incorporation assays; assay type: cell-based
Text: Thus, the present invention also provides a method of treating, preventing, or inhibiting inflammation or an inflammatory disease or disorder in a subject without inhibiting cell proliferation in the subject.

[2] = system: edema caused by phorbol 12-myristate 13-acetate (PMA) in mouse ear; test: Inhibition of mouse ear edema (PMA mouse ear model); assay type: in vivo, mice; settings: for inflammation caused by PMA (result in words): irritant phorbol 12-myristate 13-acetate (PMA)
Experimental: The efficacy of Exumolide compounds as an anti-inflammatory agent was established by the following assay. Exumolide A was topically applied in acetone to the inside pinnae of the ears of mice in a solution comprising an edema-causing irritant, phorbol 12-myristate 13-acetate (PMA). Specifically, 2 μg/ear of PMA alone or in combination with 50 μg/ear of Exumolide A was applied to the left ears (5 mice per treatment group) and acetone was applied to all right ears. After 3 hours, 20 minutes incubation, the mice were sacrificed, the ears removed and bores taken and weighed. Edema was measured by subtracting the weight of the right ear (acetone control) from the weight of the left ear (treated). Results were recorded as % decrease (inhibition) or % increase (potentiation) in edema relative to the PMA control group edema.

SMILES | antibiotic activity [1] | inhibition of cell proliferation (cell proliferation) | Edema (mg ± SEM) ([2]; 50 ug/ear topical in acetone with 2 μg/ear PMA, left minus right ear bore weight after 3 hours, 20 minutes) [mg] | inflammation caused by PMA (result in words) [2]
CC(C)C[C@@H]1OC(=O)[C@@H]2CCCN2C(=O)[C@H](Cc2ccccc2)NC(=O)[C@H](Cc2ccccc2)NC(=O)[C@H](CC(C)C)N(C)C(=O)[C@@H]2CCCN2C1=O [Exumolide A] (cyclo(FFP[Hica(2S)]P[NMeL])) | exhibit antibiotic activity | do not inhibit cell proliferation | 4.3 ± 1.0 | prevent or inhibit inflammation
CC(C)C[C@@H]1NC(=O)[C@@H]2CCCN2C(=O)[C@H](CC(C)C)OC(=O)[C@@H]2CCCN2C(=O)[C@H](Cc2ccccc2)NC(=O)[C@H](Cc2ccccc2)NC1=O [Exumolide B] (cyclo(FFP[Hica(2S)]PL)) | exhibit antibiotic activity | do not inhibit cell proliferation | – | prevent or inhibit inflammation
